Experimental data reported in article PMC9407317 (Proceedings of the National Academy of Sciences of the …, 2022).

Columns and labels:
SK4 K+ channel [1] = molecular target: T1, SK4 K+ channel (Homo sapiens, UniProt O15554); experiment: whole-cell patch clamp; assay type: cell-based; conditions: read-out: % inhibition at 0.5 μM
SK4 K+ channel [2] = molecular target: T1, SK4 K+ channel; assay type: cell-based

T1 sequence (O15554 whole entry): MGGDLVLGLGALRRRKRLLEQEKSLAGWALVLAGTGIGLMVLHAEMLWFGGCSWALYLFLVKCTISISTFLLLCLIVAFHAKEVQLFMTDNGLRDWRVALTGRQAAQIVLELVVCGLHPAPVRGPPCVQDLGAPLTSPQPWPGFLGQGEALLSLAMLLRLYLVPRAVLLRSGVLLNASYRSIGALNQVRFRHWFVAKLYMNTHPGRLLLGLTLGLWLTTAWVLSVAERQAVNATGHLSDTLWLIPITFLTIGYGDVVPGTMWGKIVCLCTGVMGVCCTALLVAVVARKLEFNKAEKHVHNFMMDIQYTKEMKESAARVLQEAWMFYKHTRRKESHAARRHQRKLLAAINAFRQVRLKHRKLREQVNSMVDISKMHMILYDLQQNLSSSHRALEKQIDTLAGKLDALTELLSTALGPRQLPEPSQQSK

**Q.** `Clc1ccccc1C(c1ccccc1)(c1ccccc1)n1cccn1` [Tram-34] was tested. Which inhibition at 0.5 µM (SK4 K+ channel [1]) did it give?
**A.** 86%

**Q.** Which EC50 (SK4 K+ channel [2]) does the source give for `CCCCCCCC(=O)OC[C@H](COP(=O)(O)O[C@@H]1[C@H](O)[C@H](O)[C@@H](OP(=O)(O)O)[C@H](OP(=O)(O)O)[C@H]1O)OC(=O)CCCCCCC` [diC8-PIP2] here?
**A.** 0.154 µM
